Results reported in ChEMBL document CHEMBL1129417, “Glucose transport-enhancing and hypoglycemic activity of 2-methyl-2-phenoxy-3-phenylpropanoic acids” (1996).

Assays:
Mus musculus [1] = experiment: compound was tested in vivo for hypoglycemic activity expressed as Glucose lowering relative to positive control in 6-8 week old C57BL/6J ob/ob mouse at 50 mg/kg; type: functional
Mus musculus [2] = experiment: In vivo hypoglycemic activity expressed as glucose lowering relative to positive control in 6-8 week old C57BL/6J ob/ob mouse at 10 mg/kg; type: functional
3T3-L1 [3] = experiment: Acute effects in vitro by measuring 2-deoxyglucose (2DG) uptake in vehicle treated 3T3-L1 adipocytes at 30 uM dose.; type: functional
3T3-L1 [4] = experiment: In vitro by measurements of 2-Deoxyglucose (2DG) uptake in vehicle treated 3T3-L1 adipocytes at 3 uM dose.; type: functional
L6 [5] = experiment: compound was evaluated for their acute effects in vitro by measuring 2-Deoxyglucose (2DG) uptake in vehicle treated L6 […] at 100 uM dose.; type: functional
L6 [6] = experiment: compound was evaluated for their acute effects in vitro by measuring 2-Deoxyglucose (2DG) uptake in vehicle treated L6 […] at 60 uM dose.; type: functional
Mus musculus [7] = experiment: compound was tested in vivo for hypoglycemic activity expressed as Glucose lowering relative to positive control in 6-8 week old C57BL/6J ob/ob mouse at 25 mg/kg; type: functional
L6 [8] = experiment: compound was evaluated for their acute effects in vitro by measuring 2-Deoxyglucose (2DG) uptake in vehicle treated L6 […] at 30 uM dose.; type: functional
3T3-L1 [9] = experiment: Acute effects in vitro by measuring 2-deoxyglucose (2DG) uptake in vehicle treated 3T3-L1 adipocytes at 10 uM dose.; type: functional
3T3-L1 [10] = experiment: In vitro measurements 2-Deoxyglucose (2DG) uptake in vehicle treated 3T3-L1 adipocytes at 100 uM dose.; type: functional
Rattus norvegicus [11] = organism: Rattus norvegicus; experiment: Inhibition of gluconeogenesis in rat; type: functional
3T3-L1 [12] = experiment: compound was evaluated for their acute effects in vitro by measuring 2-Deoxyglucose (2DG) uptake in vehicle treated 3T3-L1 adipocytes at 60 uM dose.; type: functional
Mus musculus [13] = experiment: compound was tested in vivo for hypoglycemic activity in 6-8 week old C57BL/6J ob/ob mouse at 10 mg/kg; type: functional
Rattus norvegicus [14] = organism: Rattus norvegicus; experiment: Compound was tested for inhibition of gluconeogenesis; type: functional; conditions: Rattus norvegicus; read-out: ED50
Mus musculus [15] = experiment: compound was tested in vivo for hypoglycemic activity in 6-8 week old C57BL/6J ob/ob mouse at 50 mg/kg; type: functional
3T3-L1 [16] = experiment: compound was evaluated for their acute effects in vitro by measuring 2-Deoxyglucose (2DG) uptake in vehicle treated 3T3-L1 adipocytes at 10 uM dose.; type: functional
3T3-L1 [17] = experiment: compound was evaluated for their acute effects in vitro by measuring 2-Deoxyglucose (2DG) uptake in vehicle treated 3T3-L1 adipocytes at 30 uM dose.; type: functional
Mus musculus [18] = experiment: compound was tested in vivo for hypoglycemic activity expressed as Glucose lowering relative to positive control in 6-8 week old C57BL/6J ob/ob mouse at 5 uM dose.; type: functional
Mus musculus [19] = experiment: compound was tested in vivo for hypoglycemic activity expressed as Glucose lowering relative to positive control in 6-8 week old C57BL/6J ob/ob mouse at 10 uM dose.; type: functional
Mus musculus [20] = experiment: compound was tested in vivo for hypoglycemic activity expressed as Glucose lowering relative to positive control in 6-8 week old C57BL/6J ob/ob mouse at 1 uM dose.; type: functional
Mus musculus [21] = experiment: In vivo hypoglycemic activity expressed as glucose lowering relative to positive control in 6-8 week old C57BL/6J ob/ob mouse at 5 mg/kg.; type: functional; conditions: 5 mg/kg
Mus musculus [22] = experiment: compound was tested in vivo for hypoglycemic activity expressed as Glucose lowering relative to positive control in 6-8 week old C57BL/6J ob/ob mouse at 2.5 mg/kg; type: functional
Mus musculus [23] = experiment: In vivo hypoglycemic activity expressed as glucose lowering relative to positive control in 6-8 week old C57BL/6J ob/ob mouse at 1 mg/kg.; type: functional
3T3-L1 [24] = experiment: compound was evaluated for their acute effects in vitro by measuring 2-Deoxyglucose (2DG) uptake in vehicle treated 3T3-L1 adipocytes at 100 uM dose.; type: functional
Mus musculus [25] = experiment: compound was tested in vivo for hypoglycemic activity in 6-8 week old C57BL/6J ob/ob mouse at 25 mg/kg; type: functional
Rattus norvegicus [26] = organism: Rattus norvegicus; experiment: Percentage inhibition of Glucagon stimulated Gluconeogenesis in Isolated Rat Hepatocytes in vitro; type: functional, Hepatocyte
Rattus norvegicus [27] = organism: Rattus norvegicus; experiment: Percentage inhibition of basal stimulated Gluconeogenesis in Isolated Rat Hepatocytes in vitro; type: functional, Hepatocyte
3T3-L1 [28] = experiment: In vitro measurements of 2-Deoxyglucose (2DG) uptake in vehicle treated 3T3-L1 adipocytes at 60 uM dose.; type: functional
Mus musculus [29] = experiment: compound was tested in vivo for hypoglycemic activity in 6-8 week old C57BL/6J ob/ob mouse at 5 mg/kg; type: functional
3T3-L1 [30] = experiment: compound was evaluated for their acute effects in vitro by measuring 2-Deoxyglucose (2DG) uptake in vehicle treated 3T3-L1 adipocytes at concentration of 3 micro M; type: functional
3T3-L1 [31] = experiment: compound was evaluated for their acute effects in vitro by measuring 2-Deoxyglucose (2DG) uptake in vehicle treated 3T3-L1 adipocytes at concentration of 30 micro M; type: functional
3T3-L1 [32] = experiment: compound was evaluated for their acute effects in vitro by measuring 2-Deoxyglucose (2DG) uptake in vehicle treated 3T3-L1 adipocytes at concentration of 10 micro M; type: functional
Mus musculus [33] = experiment: compound was tested in vivo for hypoglycemic activity expressed as Glucose lowering relative to positive control in 6-8 week old C57BL/6J ob/ob mouse at 0.5 mg/kg; type: functional
Mus musculus [34] = experiment: compound was tested in vivo for hypoglycemic activity expressed as Glucose lowering relative to positive control in 6-8 week old C57BL/6J ob/ob mouse at 0.1 mg/kg; type: functional
[35] = Rattus norvegicus, read-out: ED50

Structure (SMILES): Cc1ccc(S(=O)(=O)C(CCCCCc2ccc(Cl)cc2)C(=O)O)cc1 (stereo not given)
- Hypoglycemic activity (Mus musculus [1]): 71%
- Hypoglycemic activity (Mus musculus [2]): 22%
- Basal uptake (3T3-L1 [3]): 100%
- Basal uptake (3T3-L1 [4]): 114%
- Basal uptake (L6 [5]): 134%
- Basal uptake (L6 [6]): 124%
- Hypoglycemic activity (Mus musculus [7]): 60%
- Basal uptake (L6 [8]): 88%
- Basal uptake (3T3-L1 [9]): 93%
- Basal uptake (3T3-L1 [10]): 250%
- ED50 (Rattus norvegicus [11]; [35]): 25 mg/kg

Structure (SMILES): CC(C)c1ccc(SC(Cc2ccc(Cl)cc2)C(=O)O)cc1 (stereo not given)
- Basal uptake (3T3-L1 [12]): 102%
- Hypoglycemic activity (Mus musculus [13]): 0%
- ED50 (Rattus norvegicus [14]): 10 mg/kg
- Hypoglycemic activity (Mus musculus [15]): 90%

Structure (SMILES): CC(C)c1ccc(SC(C)(Cc2ccc(Cl)cc2)C(=O)[O-])cc1.[Na+] (stereo not given)
- Basal uptake (3T3-L1 [16]): 83%
- Basal uptake (3T3-L1 [12]): 187%
- Hypoglycemic activity (Mus musculus [13]): 31%
- ED50 (Rattus norvegicus [14]): > 10 mg/kg
- Basal uptake (3T3-L1 [17]): 119%

Structure (SMILES): CC(C)c1ccc(OC(C)(Cc2cccc(Cl)c2)C(=O)[O-])cc1.[Na+] (stereo not given)
- Hypoglycemic activity (Mus musculus [18]): 32%
- Hypoglycemic activity (Mus musculus [19]): 101%
- Hypoglycemic activity (Mus musculus [20]): 47%
- ED50 (Rattus norvegicus [11]; [35]): 5 mg/kg

Structure (SMILES): CC(C)c1ccc(OC(C)(Cc2ccc(Cl)cc2)C(=O)O)cc1 (stereo in doubt; 27)
- Hypoglycemic activity (Mus musculus [21]): 65%
- Hypoglycemic activity (Mus musculus [22]): 79%
- Basal uptake (3T3-L1 [10]): 214%
- Hypoglycemic activity (Mus musculus [23]; 1 mg/kg): 36%
- ED50 (Rattus norvegicus [11]): 1 mg/kg

Structure (SMILES): C1CCC(NC2CCCCC2)CC1.CC(C)c1ccc(OC(Cc2cccc(F)c2)C(=O)O)cc1 (stereo not given)
- Basal uptake (3T3-L1 [24]): 111%
- Hypoglycemic activity (Mus musculus [25]): 65%
- Inhibition (Rattus norvegicus [26]): 3%
- Inhibition (Rattus norvegicus [27]): 38%
- ED50 (Rattus norvegicus [14]): < 25 mg/kg
- Hypoglycemic activity (Mus musculus [15]): 100%

Structure (SMILES): CCc1ccc(CC(C)(Oc2ccc(C(C)C)cc2)C(=O)[O-])cc1.[Na+] (stereo not given)
- Basal uptake (3T3-L1 [28]): 109%
- Glucose lowering relative to positive control (Mus musculus [29]): 109%
- Hypoglycemic activity (Mus musculus [2]): 119%
- Basal uptake (3T3-L1 [30]): 94%
- Basal uptake (3T3-L1 [31]): 216%
- Basal uptake (3T3-L1 [32]): 108%
- Hypoglycemic activity (Mus musculus [33]): 76%
- Hypoglycemic activity (Mus musculus [23]): 86%
- Hypoglycemic activity (Mus musculus [34]): 55%
- ED50 (Rattus norvegicus [11]; [35]): 0.1 mg/kg

Structure (SMILES): C1CCC(NC2CCCCC2)CC1.CC(C)c1ccc(OC(Cc2cccc(C(F)(F)F)c2)C(=O)O)cc1 (stereo not given)
- Basal uptake (3T3-L1 [24]): 284%
- Hypoglycemic activity (Mus musculus [25]): 64%
- Hypoglycemic activity (Mus musculus [13]): <0%
- ED50 (Rattus norvegicus [14]): 25 mg/kg
- Hypoglycemic activity (Mus musculus [15]): 76%
